Read-outs that look alike come from different tables or passages of the source.
Test: Solubility test of compound (a) with and without solubilizers (Experimental Example 1; HPLC of filtrate)
Method: Solubility tests of the compound (a) (2-amino-7-isopropyl-5-oxo-5H-[1]-benzopyrano[2,3-b]pyridine-3-carboxylic acid) employing the solubilizers of this invention and, for comparison, employing various conventional solubilizers were performed.
The solubility was measured by the following manner:
An excess amount of the compound (a) was added to a given volume of a phosphate buffer, the mixture was sufficiently stirred, then the pH was adjusted to a given level, the mixture was allowed to stand at room temperature (25° C.) for 48 hours, the resultant was subjected to filtration with 0.45μ membrane filter, followed by measuring the concentration of the compound (a) in the filtrate by means of high performance liquid chromatography.

[1] = in words, substance used as solubilizer

| Molecule | effect for improving the solubility of compound (a) | effect for improving the solubility of compound (a) [1] |
| --- | --- | --- |
| OC[C@H]1O[C@@H]2O[C@H]3[C@H](O)[C@@H](O)[C@@H](O[C@H]4[C@H](O)[C@@H](O)[C@@H](O[C@H]5[C@H](O)[C@@H](O)[C@@H](O[C@H]6[C@H](O)[C@@H](O)[C@@H](O[C@H]7[C@H](O)[C@@H](O)[C@@H](O[C@H]8[C@H](O)[C@@H](O)[C@@H](O[C@H]1[C@H](O)[C@H]2O)O[C@@H]8CO)O[C@@H]7CO)O[C@@H]6CO)O[C@@H]5CO)O[C@@H]4CO)O[C@@H]3CO [β-cyclodextrin] | excellent effect |  |
| Polyoxyethylene sorbitan monooleate [Tween 80, reference compound] | less effective |  |
| O=C([O-])c1ccccc1O.[Na+] [sodium salicylate, reference compound] |  | less effective |
| polyvinylpyrrolidone | excellent effect |  |
| NNC(=O)c1ccncc1 [isoniazid, reference compound] | some improvement |  |
| NC(N)=O [urea, reference compound] |  | less effective |
